Paper PMC7872314, “Modeling Bioavailable Concentrations in Zebrafish Cell Lines and Embryos Increases the Correlation of Toxicity Potencies across Test Systems” (Environmental Science & Technology, 2020)
Like-named read-outs stand apart in the source and are kept apart here.

Columns and labels:
[1] = ref Comptox, PubChem or DrugBank; cited from earlier work
[2] = tested on: ZF4 (fibroblasts) cell line; test: ATP assay (ATP/LDH multiplex), ATP metabolism; type: cell-based, zebrafish (Danio rerio); conditions: Danio rerio, Fibroblast
[3] = tested on: ZFL (hepatocytes) cell line; test: cells; type: cell-based, zebrafish (Danio rerio); conditions: Danio rerio, Hepatocyte
[4] = tested on: ZFL (hepatocytes) cell line; test: cells; type: cell-based, zebrafish (Danio rerio); conditions: Danio rerio, Hepatocyte; remark: listed apart in the source
[5] = tested on: ZF4 (fibroblasts) cell line; test: CFDA endpoint of AB/CFDA/NR multiplex, membrane stability; type: cell-based, zebrafish (Danio rerio); conditions: Danio rerio, Fibroblast
[6] = tested on: ZFL (hepatocytes) cell line; test: cells; type: cell-based, zebrafish (Danio rerio); conditions: Danio rerio, Hepatocyte; remark: listed apart in the source
[7] = tested on: ZF4 (fibroblasts) cell line; test: Neutral red, fluorescence (NRf), AB/CFDA/NR multiplex, lysosome stability; type: cell-based, zebrafish (Danio rerio); conditions: Danio rerio, Fibroblast
zebrafish embryos [8] = test: animal or person; type: in vivo, zebrafish (Danio rerio); conditions: for EC50: Danio rerio
[9] = tested on: ZF4 (fibroblasts) cell line; test: Neutral red, absorbance (NRa), AB/CFDA/NR multiplex, lysosome stability; type: cell-based, zebrafish (Danio rerio); conditions: Danio rerio, Fibroblast
zebrafish embryos [10] = tested on: zebrafish embryos; set-up: method as in earlier work; conditions: nominal, cited from earlier work
ZF4 and ZFL cell lines = test: Cytotoxicity assays, all endpoints, both cell lines (mean/range); type: cell-based, zebrafish (Danio rerio); conditions: 48 h, mean of all cytotoxicity endpoints (without LDH) in ZF4 and ZFL
[11] = tested on: ZFL (hepatocytes) cell line; test: cells; type: cell-based, zebrafish (Danio rerio); conditions: Danio rerio, Hepatocyte; remark: listed apart in the source
[12] = tested on: ZFL (hepatocytes) cell line; test: cells; type: cell-based, zebrafish (Danio rerio); conditions: Danio rerio, Hepatocyte; remark: listed apart in the source
[13] = tested on: diverse mammalian cell assay results; set-up: method as in https://comptox.epa.gov/dashboard/; conditions: COMPTOX; ref https://comptox.epa.gov/dashboard/; read-out: median AC50; cited from earlier work
[14] = tested on: ZF4 (fibroblasts) cell line; test: BCA assay (MTS/BCA multiplex), protein amount; type: cell-based, zebrafish (Danio rerio); conditions: Danio rerio, Fibroblast
[15] = tested on: ZF4 (fibroblasts) cell line; test: alamarBlue (AB) endpoint of AB/CFDA/NR multiplex, cellular respiration; type: cell-based, zebrafish (Danio rerio); conditions: Danio rerio, Fibroblast
[16] = tested on: ZF4 (fibroblasts) cell line; test: MTS assay (MTS/BCA multiplex), NAD(P)H metabolism; type: cell-based, zebrafish (Danio rerio); conditions: Danio rerio, Fibroblast
[17] = tested on: ZFL (hepatocytes) cell line; test: cells; type: cell-based, zebrafish (Danio rerio); conditions: Danio rerio, Hepatocyte; remark: listed apart in the source
[18] = tested on: zebrafish cell lines vs zebrafish embryo; test: Potency ratios IC50;x/EC50;x (cytotoxicity assays vs mFET); set-up: species or system zebrafish (Danio rerio); conditions: median over cytotoxicity endpoints, nominal, 48 h cells / 48 hpf mFET
[19] = tested on: ZFL (hepatocytes) cell line; test: cells; type: cell-based, zebrafish (Danio rerio); conditions: Danio rerio, Hepatocyte; remark: listed apart in the source

## CO[C@H]1C[C@H](O[C@H]2[C@H](C)O[C@@H](O[C@@H]3/C(C)=C/C[C@@H]4C[C@@H](C[C@]5(C=C[C@H](C)[C@@H](C6CCCCC6)O5)O4)OC(=O)[C@@H]4C=C(C)[C@@H](O)[C@H]5OC/C(=C\C=C\[C@@H]3C)[C@]54O)C[C@@H]2OC)O[C@@H](C)[C@@H]1O [Doramectin, doramectin]
[1]
  BCF: 5.26
  Physiological charge: 0
  logKoa: 9.63
  logKow: 5.24
  pKa (Strongest Acidic): 12.47
  pKa (Strongest Basic): -3.4
  w_solubility (water solubility): 39.5 µM
[2]; ATP - ZF4, log10 of IC50, read-out: LogIC50 (converted)
  IC50: 4.38 µM
[2]; ATP - ZF4, read-out: IC50
  IC50: 4.38 µM
[2]; ZF4, 48 h exposure, nominal, log10, read-out: logIC50 (log10 IC50;nom) ATP (converted)
  IC50: 4.37 µM
[2]; ZF4, 48 h exposure, nominal, read-out: IC50;nom ATP
  IC50: 4.38 µM
[3]; CFDA - ZFL, log10 of IC50, read-out: LogIC50 (converted)
  IC50: 9.33 µM
[3]; CFDA - ZFL, read-out: IC50
  IC50: 9.33 µM
[3]; ZFL, 48 h exposure, nominal, log10, read-out: logIC50 (log10 IC50;nom) CFDA (converted)
  IC50: 9.33 µM
[3]; ZFL, 48 h exposure, nominal, read-out: IC50;nom CFDA
  IC50: 9.33 µM
[4]; NR-abs - ZFL, log10 of IC50, read-out: LogIC50 (converted)
  IC50: 4.52 µM
[4]; NR-abs - ZFL, read-out: IC50
  IC50: 4.52 µM
[4]; ZFL, 48 h exposure, nominal, log10, read-out: logIC50 (log10 IC50;nom) NRa (converted)
  IC50: 4.57 µM
[4]; ZFL, 48 h exposure, nominal, read-out: IC50;nom NRa
  IC50: 4.52 µM
[5]; CFDA - ZF4, log10 of IC50, read-out: LogIC50 (converted)
  IC50: 16.8 µM
[5]; CFDA - ZF4, read-out: IC50
  IC50: 16.8 µM
[5]; ZF4, 48 h exposure, nominal, log10, read-out: logIC50 (log10 IC50;nom) CFDA (converted)
  IC50: 17 µM
[5]; ZF4, 48 h exposure, nominal, read-out: IC50;nom CFDA
  IC50: 16.8 µM
[6]; AB - ZFL, log10 of IC50, read-out: LogIC50 (converted)
  IC50: 6.74 µM
[6]; AB - ZFL, read-out: IC50
  IC50: 6.74 µM
[6]; ZFL, 48 h exposure, nominal, log10, read-out: logIC50 (log10 IC50;nom) AB (converted)
  IC50: 6.76 µM
[6]; ZFL, 48 h exposure, nominal, read-out: IC50;nom AB
  IC50: 6.74 µM
[7]; NR-fluo - ZF4, log10 of IC50, read-out: LogIC50 (converted)
  IC50: 15.3 µM
[7]; NR-fluo - ZF4, read-out: IC50
  IC50: 15.3 µM
[7]; ZF4, 48 h exposure, nominal, log10, read-out: logIC50 (log10 IC50;nom) NRf (converted)
  IC50: 15.5 µM
[7]; ZF4, 48 h exposure, nominal, read-out: IC50;nom NRf
  IC50: 15.3 µM
Zebrafish embryos [8]; 48 hpf time point less sensitive than 144 hpf
  difference in toxicity (EC50;nom) between 48 hpf and 144 hpf: marginally more toxic
Zebrafish embryos [8]; 48 hpf, nominal, log10, listed as Dor
  log EC50;nom (mFET): -5.914 M
Zebrafish embryos [8]; 48 hpf, nominal, log10, read-out: log EC50;nom (mFET) (converted)
  EC50: 1.23 µM
Zebrafish embryos [8]; 48 hpf, nominal, read-out: EC50;nom (embryo)
  EC50: 1.1 µg/mL
Zebrafish embryos [8]; read-out: EC50 48hpf
  EC50: 1.22 µM
Zebrafish embryos [8]; read-out: EC50;nom (mFET)
  EC50: 1.22 µM
[9]; NR-abs - ZF4, log10 of IC50, read-out: LogIC50 (converted)
  IC50: 14.6 µM
[9]; NR-abs - ZF4, read-out: IC50
  IC50: 14.6 µM
[9]; ZF4, 48 h exposure, nominal, log10, read-out: logIC50 (log10 IC50;nom) NRa (converted)
  IC50: 14.5 µM
[9]; ZF4, 48 h exposure, nominal, read-out: IC50;nom NRa
  IC50: 14.6 µM
[9]; ZF4 cell line, NRa endpoint, nominal, read-out: IC50;nom
  IC50: 13.1 µg/mL
Zebrafish embryos [10]; 144 hpf, converted
  EC50: 0.645 µM
Zebrafish embryos [10]; log10
  logEC50 144 hpf: -6.19 M
ZF4 and ZFL cell lines; Danio rerio, log10, read-out: Mean log IC50nom (converted)
  IC50: 9.12 µM
ZF4 and ZFL cell lines; log10, listed as Dor
  Mean log IC50nom: -5.037 M
[11]; NR-fluo - ZFL, log10 of IC50, read-out: LogIC50 (converted)
  IC50: 5.08 µM
[11]; NR-fluo - ZFL, read-out: IC50
  IC50: 5.08 µM
[11]; ZFL, 48 h exposure, nominal, log10, read-out: logIC50 (log10 IC50;nom) NRf (converted)
  IC50: 5.13 µM
[11]; ZFL, 48 h exposure, nominal, read-out: IC50;nom NRf
  IC50: 5.08 µM
[12]; BCA - ZFL, log10 of IC50, read-out: LogIC50 (converted)
  IC50: 4.44 µM
[12]; BCA - ZFL, read-out: IC50
  IC50: 4.44 µM
[12]; ZFL, 48 h exposure, nominal, log10, read-out: logIC50 (log10 IC50;nom) BCA (converted)
  IC50: 4.47 µM
[12]; ZFL, 48 h exposure, nominal, read-out: IC50;nom BCA
  IC50: 4.44 µM
[13]
  AC50: 1.87 µM
[14]; BCA - ZF4, log10 of IC50, read-out: LogIC50 (converted)
  IC50: 9.03 µM
[14]; BCA - ZF4, read-out: IC50
  IC50: 9.03 µM
[14]; ZF4, 48 h exposure, nominal, log10, read-out: logIC50 (log10 IC50;nom) BCA (converted)
  IC50: 9.12 µM
[14]; ZF4, 48 h exposure, nominal, read-out: IC50;nom BCA
  IC50: 9.03 µM
[15]; AB - ZF4, log10 of IC50, read-out: LogIC50 (converted)
  IC50: 17.1 µM
[15]; AB - ZF4, read-out: IC50
  IC50: 17.1 µM
[15]; ZF4, 48 h exposure, nominal, log10, read-out: logIC50 (log10 IC50;nom) AB (converted)
  IC50: 17 µM
[15]; ZF4, 48 h exposure, nominal, read-out: IC50;nom AB
  IC50: 17.1 µM
[16]; MTS - ZF4, log10 of IC50, read-out: LogIC50 (converted)
  IC50: 12.3 µM
[16]; MTS - ZF4, read-out: IC50
  IC50: 12.3 µM
[16]; ZF4, 48 h exposure, nominal, log10, read-out: logIC50 (log10 IC50;nom) MTS (converted)
  IC50: 12.3 µM
[16]; ZF4, 48 h exposure, nominal, read-out: IC50;nom MTS
  IC50: 12.3 µM
[17]; MTS - ZFL, log10 of IC50, read-out: LogIC50 (converted)
  IC50: 9.41 µM
[17]; MTS - ZFL, read-out: IC50
  IC50: 9.42 µM
[17]; ZFL, 48 h exposure, nominal, log10, read-out: logIC50 (log10 IC50;nom) MTS (converted)
  IC50: 9.33 µM
[17]; ZFL, 48 h exposure, nominal, read-out: IC50;nom MTS
  IC50: 9.42 µM
[18]
  potency ratio IC50;nom/EC50;nom (median): 7.68
[19]; ATP - ZFL, log10 of IC50, read-out: LogIC50 (converted)
  IC50: 15.9 µM
[19]; ATP - ZFL, read-out: IC50
  IC50: 15.9 µM
[19]; ZFL, 48 h exposure, nominal, log10, read-out: logIC50 (log10 IC50;nom) ATP (converted)
  IC50: 15.8 µM
[19]; ZFL, 48 h exposure, nominal, read-out: IC50;nom ATP
  IC50: 15.9 µM
